Assay results taken from ChEMBL document CHEMBL5143743, “Novel Thioxothiazolo[3,4-a]quinazolin-5(4H)-one Derivatives as BKCa Channel Activators for Urinary Incontinence” (ACS Med Chem Lett, 2022).
Each block holds one molecule with its values, some of them ahead of it. Calls of active or inactive are those of the source. The rule behind the calls is not given here.

Experiments:
AD293 [1] = assay: Activation of human Slo G803D/N806K mutant expressed in human AD293 cells assessed as initial velocity of channel activation at 6 uM measured at 2 secs interval for 4 secs by FluxOR based fluorescence assay; type: cell-based; conditions: filed as activator, time 4.0 sec
AD293 [2] = assay: Activation of human Slo G803D/N806K mutant expressed in human AD293 cells assessed as increase in channel activity by measuring change in relative fluorescence unit at 6 uM measured at 2 secs interval for 80 secs by FluxOR based fluorescence assay; type: cell-based; conditions: filed as activator, time 80.0 sec
[3] = (§1) Activation of human Slo G803D/N806K mutant expressed in human AD293 cells measured at 2 secs interval for 120 secs by FluxOR based fluorescence assay; type: cell-based
[4] = Stability in human liver microsomes assessed as parent compound remaining at 1 uM measured after 30 mins in presence of NADPH regeneration system by LC-MS/MS analysis; type: ADME, Microsome; conditions: read-out: Stability
[5] = biological target: Calcium-activated potassium channel subunit alpha-1 (Rattus norvegicus) (UniProt Q62976); assay: Activation of rat Slo expressed in Xenopus laevis oocytes assessed as intracellular shift in voltage at half activation at 10 uM with 100 mV holding potential by patch-clamp electrophysiological method; type: cell-based; conditions: Oocyte, filed as activator
[6] = biological target: Calcium-activated potassium channel subunit alpha-1 (Rattus norvegicus) (UniProt Q62976); assay: Activation of rat Slo expressed in Xenopus laevis oocytes assessed as increase in maximum conductance at 10 uM with 100 mV holding potential by patch-clamp electrophysiological method relative to control; type: cell-based; conditions: Oocyte, filed as activator
[7] = AUC (infinity) in Sprague-Dawley rat at 10 mg/kg, po by LC-MS analysis; type: ADME, organism-based; design: time infinity, dose 10 mg/kg, route po; conditions: in vivo
AD293 [8] = assay: as §1; type: cell-based; conditions: filed as activator, time 120.0 sec, DDE = dose-dependent effect
[9] = Tmax in Sprague-Dawley rat at 10 mg/kg, po by LC-MS analysis; type: ADME, organism-based; conditions: in vivo
[10] = Half life in Sprague-Dawley rat at 10 mg/kg, po by LC-MS analysis; type: ADME, organism-based; conditions: in vivo
[11] = biological target: Calcium-activated potassium channel subunit alpha-1 (Rattus norvegicus) (UniProt Q62976); assay: Activation of rat Slo expressed in Xenopus laevis oocytes assessed as increase in intracellular maximum conductance at 10 uM with 100 mV holding potential by patch-clamp electrophysiological method relative to control; type: cell-based; conditions: Oocyte, filed as activator
[12] = biological target: Calcium-activated potassium channel subunit alpha-1 (Rattus norvegicus) (UniProt Q62976); assay: Activation of rat Slo expressed in Xenopus laevis oocytes assessed as delayed channel closing 10 uM with 100 mV holding potential by patch-clamp electrophysiological method; type: cell-based; conditions: Oocyte, filed as activator
[13] = Volume of distribution at steady state in Sprague-Dawley rat at 5 mg/kg, iv by LC-MS analysis; type: ADME, organism-based; conditions: in vivo, read-out: Vdss
AD293 [14] = assay: Activation of human Slo G803D/N806K mutant expressed in human AD293 cells assessed as increase in initial velocity at 5 uM measured at 2 secs interval for 4 secs by FluxOR based fluorescence assay; type: cell-based; conditions: filed as activator, time 4.0 sec
[15] = AUC (infinity) in Sprague-Dawley rat at 5 mg/kg, iv by LC-MS analysis; type: ADME, organism-based; design: time infinity, dose 5 mg/kg, route iv; conditions: in vivo
[16] = biological target: Calcium-activated potassium channel subunit alpha-1 (Rattus norvegicus) (UniProt Q62976); assay: Activation of rat Slo expressed in Xenopus laevis oocytes assessed as shortened channel opening 10 uM with 100 mV holding potential by patch-clamp electrophysiological method; type: cell-based; conditions: Oocyte, filed as activator
[17] = biological target: Calcium-activated potassium channel subunit alpha-1 (Rattus norvegicus) (UniProt Q62976); assay: Activation of rat Slo expressed in Xenopus laevis oocytes assessed as shift in voltage at half activation at 10 uM with 100 mV holding potential by patch-clamp electrophysiological method; type: cell-based; conditions: Oocyte, filed as activator
[18] = Half life in Sprague-Dawley rat at 5 mg/kg, iv by LC-MS analysis; type: ADME, organism-based; conditions: in vivo
[19] = AUC (0 to 8 hrs) in Sprague-Dawley rat at 5 mg/kg, iv by LC-MS analysis; type: ADME, organism-based; design: time < 8 hr, dose 5 mg/kg, route iv; conditions: in vivo
Rattus norvegicus [20] = assay: Inhibition of overactive bladder activity in spontaneously hypertensive rat assessed as reduction in voiding frequency at 50 mg/kg, po measured after 3 hrs relative to control; type: functional
[21] = Clearance in Sprague-Dawley rat at 5 mg/kg, iv by LC-MS analysis; type: ADME, organism-based; conditions: in vivo
[22] = Cmax in Sprague-Dawley rat at 10 mg/kg, po by LC-MS analysis; type: ADME, organism-based; design: dose 10 mg/kg, route po; conditions: in vivo
Rattus norvegicus [23] = assay: Inhibition of overactive bladder activity in spontaneously hypertensive rat assessed as reduction in voiding frequency at 10 mg/kg, po measured after 3 hrs; type: functional, organism-based
[24] = Oral bioavailability in Sprague-Dawley rat at 10 mg/kg by LC-MS analysis; type: ADME, organism-based; conditions: in vivo
[25] = biological target: Calcium-activated potassium channel subunit alpha-1 (Rattus norvegicus) (UniProt Q62976); assay: Activation of rat Slo expressed in Xenopus laevis oocytes at 10 uM with 100 mV holding potential by patch-clamp electrophysiological method; type: cell-based; conditions: Oocyte, filed as activator
[26] = AUC (0 to 8 hrs) in Sprague-Dawley rat at 10 mg/kg, po by LC-MS analysis; type: ADME, organism-based; design: time < 8 hr, dose 10 mg/kg, route po; conditions: in vivo
[27] = Protein binding in human plasma at 5 uM measured after 4 hrs by LC-MS/MS analysis; type: ADME, cell-free; conditions: read-out: PPB
AD293 [28] = assay: Activation of human Slo G803D/N806K mutant expressed in human AD293 cells assessed as increase in initial velocity at 1 uM measured at 2 secs interval for 120 secs by FluxOR based fluorescence assay; type: cell-based; conditions: filed as activator, time 120.0 sec
[29] = Protein binding in rat plasma at 5 uM measured after 4 hrs by LC-MS/MS analysis; type: ADME, cell-free; conditions: read-out: PPB

Chain of Calcium-activated potassium channel subunit alpha-1 (Rattus norvegicus) (Q62976 whole entry): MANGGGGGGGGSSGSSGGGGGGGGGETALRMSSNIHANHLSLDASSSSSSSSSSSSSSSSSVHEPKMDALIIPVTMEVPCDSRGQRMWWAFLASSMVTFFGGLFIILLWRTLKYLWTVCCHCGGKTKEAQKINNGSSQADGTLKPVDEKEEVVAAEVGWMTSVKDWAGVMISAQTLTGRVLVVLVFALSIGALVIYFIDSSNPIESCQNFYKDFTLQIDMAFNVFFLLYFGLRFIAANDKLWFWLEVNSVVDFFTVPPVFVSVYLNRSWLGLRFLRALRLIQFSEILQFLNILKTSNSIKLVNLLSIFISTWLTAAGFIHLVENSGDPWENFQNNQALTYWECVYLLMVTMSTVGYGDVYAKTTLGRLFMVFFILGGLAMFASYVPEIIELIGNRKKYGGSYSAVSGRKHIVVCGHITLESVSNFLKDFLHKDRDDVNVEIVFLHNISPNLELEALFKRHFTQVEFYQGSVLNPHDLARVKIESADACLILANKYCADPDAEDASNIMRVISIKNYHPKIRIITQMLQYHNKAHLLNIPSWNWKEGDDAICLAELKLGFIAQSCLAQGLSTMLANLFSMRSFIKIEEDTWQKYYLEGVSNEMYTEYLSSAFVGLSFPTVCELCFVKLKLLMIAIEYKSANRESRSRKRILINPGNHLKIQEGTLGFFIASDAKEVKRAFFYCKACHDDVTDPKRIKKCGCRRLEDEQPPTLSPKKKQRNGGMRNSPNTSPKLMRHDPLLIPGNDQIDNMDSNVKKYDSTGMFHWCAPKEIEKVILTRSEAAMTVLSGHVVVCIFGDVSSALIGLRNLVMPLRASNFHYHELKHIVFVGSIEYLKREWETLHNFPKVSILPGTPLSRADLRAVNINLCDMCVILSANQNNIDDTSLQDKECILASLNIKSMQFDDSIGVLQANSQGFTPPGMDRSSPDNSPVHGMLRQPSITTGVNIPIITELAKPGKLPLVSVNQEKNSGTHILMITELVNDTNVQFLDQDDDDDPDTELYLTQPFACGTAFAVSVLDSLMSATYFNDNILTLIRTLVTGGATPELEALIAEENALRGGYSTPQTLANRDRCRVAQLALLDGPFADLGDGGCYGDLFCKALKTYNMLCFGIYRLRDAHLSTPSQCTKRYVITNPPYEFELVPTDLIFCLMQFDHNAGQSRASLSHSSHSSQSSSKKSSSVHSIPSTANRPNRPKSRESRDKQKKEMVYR

Structure (SMILES): Cc1ccc(NC(=O)c2sc(=S)n3c2[nH]c(=O)c2cc(Br)ccc23)cc1
V0 (AD293 [1]): 0.71 s⁻¹
Activity (AD293 [2]): 1.41 RFU

Structure (SMILES): Cc1ccc2c(=O)[nH]c3c(C(=O)Nc4ccccc4)sc(=S)n3c2c1
V0 (AD293 [1]): 0.23 s⁻¹
Activity (AD293 [2]): 1.06 RFU

Structure (SMILES): O=C(Nc1ccccc1)c1sc(=S)n2c1[nH]c(=O)c1ccc(Cl)cc12
V0 (AD293 [1]): 0.84 s⁻¹
Activity (AD293 [2]): 1.56 RFU

Structure (SMILES): O=C(Nc1ccccc1)c1sc(=S)n2c1[nH]c(=O)c1ccc(Br)cc12
V0 (AD293 [1]): 0.56 s⁻¹
Activity (AD293 [2]): 1.25 RFU

Structure (SMILES): Cc1ccc2c(c1)c(=O)[nH]c1c(C(=O)Nc3ccccc3)sc(=S)n12
V0 (AD293 [1]): 0.32 s⁻¹
Activity (AD293 [2]): 1.16 RFU

Structure (SMILES): O=C(Nc1ccccc1)c1sc(=S)n2c1[nH]c(=O)c1cc(Cl)ccc12
V0 (AD293 [1]): 0.38 s⁻¹
Activity (AD293 [2]): 1.18 RFU

Structure (SMILES): O=C(Nc1ccccc1)c1sc(=S)n2c1[nH]c(=O)c1ccccc12
V0 (AD293 [1]): 0.42 s⁻¹
Activity (AD293 [2]): 1.03 RFU

Structure (SMILES): O=C(NCc1ccccc1)c1sc(=S)n2c1[nH]c(=O)c1ccccc12
V0 (AD293 [1]): 0.26 s⁻¹
Activity (AD293 [2]): 1.1 RFU

Structure (SMILES): NC(=O)c1sc(=S)n2c1[nH]c(=O)c1ccccc12
V0 (AD293 [1]): 0.32 s⁻¹
Activity (AD293 [2]): 0.96 RFU

Second part, led by results:

EC50 [3]: 14.9 µM
Structure (SMILES): FC(F)(F)c1cc(NC(=S)Nc2ccc(Br)cc2-c2nnn[nH]2)cc(C(F)(F)F)c1
V0 (AD293 [1]): 1.63 s⁻¹
Activity (AD293 [2]): 1.86 RFU

EC50 [3]: 11.2 µM
Structure (SMILES): O=C(Nc1cccc(O)c1)c1sc(=S)n2c1[nH]c(=O)c1cc(Br)ccc12
V0 (AD293 [1]): 4.03 s⁻¹
Activity (AD293 [2]): 4.88 RFU

EC50 [3]: 3.82 µM
Structure (SMILES): O=C(Nc1cccc(OC(F)(F)F)c1)c1sc(=S)n2c1[nH]c(=O)c1cc(Br)ccc12
V0 (AD293 [1]): 14.8 s⁻¹
Activity (AD293 [2]): 4.37 RFU

EC50 [3]: 4.85 µM
Structure (SMILES): O=C(Nc1cccc(Cl)c1)c1sc(=S)n2c1[nH]c(=O)c1cc(Br)ccc12
V0 (AD293 [1]): 16.1 s⁻¹
Activity (AD293 [2]): 3.56 RFU

EC50 [3]: 1.14 µM
remaining at 0.5 h, 1 µM [4]: 56%
Structure (SMILES): O=C(Nc1cccc(F)c1)c1sc(=S)n2c1[nH]c(=O)c1cc(Br)ccc12
V0 (AD293 [1]): 12.6 s⁻¹
Activity (AD293 [2]): 2.85 RFU

EC50 [3]: 4.6 µM
Structure (SMILES): Cc1ccccc1NC(=O)c1sc(=S)n2c1[nH]c(=O)c1cc(Br)ccc12
V0 (AD293 [1]): 9.4 s⁻¹
Activity (AD293 [2]): 3.68 RFU

EC50 [3]: 5.74 µM
Structure (SMILES): Cc1cccc(NC(=O)c2sc(=S)n3c2[nH]c(=O)c2cc(Br)ccc23)c1
V0 (AD293 [1]): 9.77 s⁻¹
Activity (AD293 [2]): 4.98 RFU

EC50 [3]: 12.7 µM
Structure (SMILES): O=C(O)c1sc(=S)n2c1[nH]c(=O)c1ccccc12
V0 (AD293 [1]): 0.38 s⁻¹
Activity (AD293 [2]): 1.38 RFU

EC50 [3]: 6.6 µM
Structure (SMILES): COc1cccc(NC(=O)c2sc(=S)n3c2[nH]c(=O)c2cc(Br)ccc23)c1
V0 (AD293 [1]): 6 s⁻¹
Activity (AD293 [2]): 3.35 RFU

delta(V1/2) [5]: 7.5 mV
fold change (FC) [6]: 1.5
AUC [7]: 17.2 uM.hr/ml
EC50 [3]: 2.89 µM
Tmax [9]: 6.67 h
half-life [10]: 8.5 h
fold change (FC) [11]: 1.3
Activity [12]: Active
Vd [13]: 1.83 L/kg
AUC [15]: 30.63 uM.hr/ml
Activity [16]: Active
delta(V1/2) [17]: 42.6 mV
half-life [18]: 6.59 h
AUC [19]: 26.8 uM.hr/ml
clearance [21]: 4.5 mL/min/kg
Cmax [22]: 1190 ng/mL
bioavailability [24]: 25.4%
Activity [25]: Active
AUC [26]: 13.64 uM.hr/ml
fraction unbound at 4 h, 5 µM [27]: < 0.03
fraction unbound at 4 h, 5 µM [29]: < 0.03
remaining at 0.5 h, 1 µM [4]: 76%
Structure (SMILES): O=C(Nc1cccc(C(F)(F)F)c1)c1sc(=S)n2c1[nH]c(=O)c1cc(Br)ccc12
V0 (AD293 [1]): 16.8 s⁻¹
Activity (AD293 [8]): Dde
Activity (AD293 [14]): Active
inhibition in vivo at 50 mg/kg (Rattus norvegicus [20]): 33%
inhibition (Rattus norvegicus [23]): Active
Activity (AD293 [2]): 3.35 RFU
Activity (AD293 [28]): Active

EC50 [3]: 17.3 µM
Structure (SMILES): O=C(Nc1cc(C(F)(F)F)cc(C(F)(F)F)c1)c1sc(=S)n2c1[nH]c(=O)c1cc(Br)ccc12
V0 (AD293 [1]): 2.08 s⁻¹
Activity (AD293 [2]): 2.28 RFU

EC50 [3]: 12.3 µM
Structure (SMILES): O=C(Nc1ccccc1)c1sc(=S)n2c1[nH]c(=O)c1cc(Br)ccc12
V0 (AD293 [1]): 5.51 s⁻¹
Activity (AD293 [2]): 3.83 RFU
